Reference: US20100016440A1, “ALPHA-AMINOAMIDE DERIVATIVES USEFUL AS ANTI-INFLAMMATORY AGENTS” (NEWRON PHARMACEUTICALS S.P.A., priority 2003, published 2010)

Columns and labels:
[1] = tested on: paw edema induced by carrageenan; assay: Paw edema carrageenan-induced inflammation; type: in vivo, rat; conditions: for volume of paw edema (mean Δml ± s.e. vs basal paw volume): 60' after carrageenan, po 1 h before carrageenan, male Wistar rats; for volume of paw edema (mean Δml ± s.e. vs basal paw volume) / reduction of edema vs. the control vehicle (inhibition): Compound A 30 mg/kg, indomethacin 5 mg/kg; for reduction of edema vs. the control vehicle (inhibition): 4 h after carrageenan injection, oral
Excerpt: The anti-inflammatory activity of the α-aminoamide compounds of formula (I) have proven effective in a rat model of inflammation induced by carrageenan injection.
The potential anti-inflammatory effect of (S)-(+)-2-[4-(2-fluorobenzyloxy)-benzylamino]-propanamide (“compound A”) was investigated in the rat model of inflammatory acute pain induced by subplantar injection of carrageenan. Itraplantar injection of carrageenan elicit a time-dependent increase in paw volume.
Male Wistar rats of 175-200 grams were used. The left hind paw was injected with 100 μl of carrageenan (2% w/v in saline). Compound A (30 mg/kg), indomethacin (5 mg/kg), or control vehicle (such as distilled water) were orally administered 1 h before carrageenan injection. The paw volume was measured with a plethysmometer (Ugo Basile) immediately before (basal) and 1, 2, 3, 4 and 5 h after the carrageenan injection.

[2] = tested on: KCl-evoked SP release from spinal cord superfused synaptosomes; assay: Substance P (SP) release from rat spinal cord synaptosomes; type: cell-based; conditions: KCl (35 mM) evoked, RIA, concentrations 0.1 to 30 μM, read-out: IC50 for reducing evoked SP release
Procedure: Male adult Sprague-Dawley rats were used. Following decapitation, the spinal cord was removed and homogenized in sucrose buffer 0.32 M pH 7.4. Samples were centrifuged at 12000 g for 20 minutes and the synaptosomal fraction was resuspended in physiological buffer. SP release from spinal cord superfused synaptosomes was induced by KCl (35 mM) and measured by RIA method (see Lee C M. et al. (1980) “The development and application of a novel N-terminal directed substance P antiserum”, Life Science 27 (7):535-543).

[3] = tested on: inflamed joint induced by carrageenan; conditions: cited from earlier work

SMILES	volume of paw edema (mean Δml ± s.e. vs basal paw volume) [1]	reduction of edema vs. the control vehicle (inhibition) [1]	paw edema formation (in words) ([1]; Compound A 30 mg/kg oral, 1-5 h after carrageenan)	IC50 [2]	mechanical hyperalgesia (in words) [3]	swelling and stiffness of the inflamed joint (in words) [3]
C[C@H](NCc1ccc(OCc2ccccc2F)cc1)C(N)=O [Compound A, (S)-(+)-2-[4-(2-fluorobenzyloxy)-benzylamino]-propanamide]	0.19 ± 0.03 mL	40%	prevented paw edema formation at all time points considered	2120 nM	–	–
COc1ccc2c(c1)c(CC(=O)O)c(C)n2C(=O)c1ccc(Cl)cc1 [Indomethacin, indomethacin]	0.29 ± 0.04 mL	about 50%	–	–	–	–
C[C@@H](CN1CC[C@@]2(C)c3cccc(O)c3C[C@@H]1C2(C)C)OCc1ccccc1 [crobenetine]	–	–	–	–	able to reverse the mechanical hyperalgesia	without any effect
Cc1cccc(C)c1OCC(C)N (stereo not shown) [mexeletine]	–	–	–	–	able to reverse the mechanical hyperalgesia	without any effect
